What all share (format): cell-based
Assay [1] relates to NCI H460, MCF7, SF268, HONE-1, NUGC-3, HepG2 and A549 cells. Description: Inhibition of cancer cell growth (MTS assay). To be noted: Homo sapiens, tested cancer cells, 72 h, read-out: CC50 (concentration required to reduce the cancer cell growth by 50%). On the procedure: NCI H460 (human lung cancer cell line), MCF7 (human breast cancer cell line), SF268 (human brain cancer cell line), HONE-1 (human nasopharyngeal epithelial carcinomas cell line), NUGC-3 (human gastric cancer cell line) cells, HepG2 (human hepatocellular carcinoma cell line), and A549 (human lung adenocarcinoma epithelial cell line) were maintained in DMEM medium containing 10% fetal bovine serum, seeded in 96-well plates (2500, 6500, 7500, 4500, 6000, 10000, or 5000 cells/well), and incubated at 37° C. with 5% CO2 supply for 24 h. The cells were then incubated with or without a test compound (at five different concentrations) in a CO2 incubator at 37° C. for 72 h. The number of viable cells in each well was determined by the tetrazolium dye reduction assay (MTS assay) according to the protocol provided by the manufacturer (Promega, Madison, Wis., USA). For each test compound, a dose-response curve was drawn based on the concentrations of the compound versus the numbers of viable cells treated with the compound at those concentrations. The CC50 value of that compound, referring to the concentration of the compound required to reduce the cancer cell growth by 50%, was determined according to the dose-response curve.

For assay [2], the system named is Transmissible Gastroenteritis Virus (TGEV) spike (S) and nucleocapsid (N) proteins. As to the kind of experiment: Inhibition of TGEV protein production (indirect immunofluorescent assay in ST cells). On the procedure: Swine testicular (ST) cells were cultured in a 96-well plate in the presence or absence of a test compound (at 8 different concentrations) for 2 hours and then infected with TGEV at a MOI of 10. Six hours after TGEV infection, the ST cells were fixed with 80% acetone and subjected to an indirect immunofluorescent assay (IFA) to examine the levels of TGEV spike (S) and nucleocapsid (N) proteins. Briefly, the fixed cells were incubated with murine monoclonal antibodies specific to these two viral proteins for a sufficient period to allow binding of the antibodies to the viral proteins. After being washed with phosphate-buffered saline for three times, the cells were incubated with a fluorescein isothiocyanate-conjugated anti-mouse immunoglobulin antibody (ICN Pharmaceuticals, Inc./Cappel) for 60 min at room temperature. The cells were washed again with phosphate-buffered saline for three times, and the fluorescence intensities released from these cells were measured by a Wallac Victor II system (Packard, Inc.) at excitation and emission wavelengths 485 nm and 535 nm, respectively. The 50% effective concentration (EC50) for inhibiting S and N protein expression of the test compound was determined based on the florescence intensity values thus measured. Alternatively, the fluorescence intensities were detected by fluorescence microscopy. More specifically, the fluorescent images produced under 485 nm and 535 nm were captured by a charge-coupled device linked to a Leica IM50 Image Manager.

Assay [3] relates to NO production in RAW 264.7 cells. As to the kind of experiment: Inhibition of nitric oxide production (Nitrate/Nitrite assay, Griess reagent). To be noted: Mus musculus, RAW264.7, LPS (10 μg/ml)/IFNγ (20 ng/ml), 18-24 h, read-out: EC50 value for inhibiting nitric oxide production. How it is done: RAW 264.7 cells were seeded (70,000 cells/well) and cultured in a 96-well culture plate using the DMEM medium described above. 24 hours later, the medium was replaced with a fresh DMEM medium supplemented with LPS (10 μg/ml)/IFNγ (20 ng/ml). Test compounds (at different concentrations) were then added. The cells, incubated with or without test compounds, were then cultured for 18-24 h and the nitrate and nitric oxide levels in the culturing medium were measured using a Nitrate/Nitrite assay kit (Cayman Chemical). Nitrate was reduced to nitrite with nitrate reductase and determined spectrophotometrically with Griess reagent at OD540. For each test compound, a dose-response curve was drawn based on the concentrations of the compound versus the corresponding nitrate/nitric oxide levels in the culturing media of the cells treated with the compound. The EC50 value of that compound for inhibiting nitric oxide production was determined according to the dose-response curve.

The mark [4] stands for this setting: Alphacoronavirus 1, read-out: EC50 for inhibiting S and N protein expression.
Setting [5] is: Alphacoronavirus 1, ST cells, compound 2 hours before TGEV infection at MOI of 10, read six hours after infection, read-out: EC50 for inhibiting S and N protein expression.

In patent publication US8486959B2, “Dibenzo[f,h]isoquinoline derivatives” (National Health Research Institutes, priority 2010, dated 2013) one finds CC50 and EC50 data, which are given here for 27 compounds.

Read-outs that look alike come from different tables or passages of the source. Bounds are passed on as bounds.

Consider `CCCN1CCc2c(c3cc(OC)c(OC)cc3c3c(OC)c(OC)c(OC)cc23)C1` [Compound 2], for which, in assay [1], the CC50 is less than 50 µM. Moreover, the EC50 in assay [2] (setting [4]) is less than 1 µM.

As to `COc1cc2c3c(c4cc(OC)c(OC)cc4c2cc1OC)C(O)CN(C(C)C)C3` (centres unmarked) [Compound 14], in assay [1], the CC50 is less than 50 µM. Further, the EC50 in assay [3] is less than 1 µM.

Turning to `CCN1CCc2c(c3cc(OC)c(OC)cc3c3cc(OC)c(OC)cc23)C1` [Compound 18], the CC50 in assay [1] was less than 50 µM.

`COc1cc2c3c(c4cc(OC)c(OC)cc4c2cc1OC)CN(CC1OCCO1)CC3` [Compound 23]: the CC50 in assay [1] was less than 50 µM.

In the case of `CCCCN1CCc2c(c3cc(OC)c(OC)cc3c3c(OC)c(OC)c(OC)cc23)C1` [Compound 3], in assay [1], the CC50 was less than 50 µM.

As to `COc1cc2c3c(c4cc(OC)c(OC)cc4c2cc1OC)CN(CC(C)C)CC3` [Compound 21], in assay [1], the CC50 is less than 50 µM.

For `CCN1CCc2c(c3cc(OC)ccc3c3cc(OC)c(OC)cc23)C1` [Compound 30], the CC50 in assay [1] was less than 50 µM.

As for `CCCN1CCc2c(c3cc(OC)c(OC)cc3c3cc(OC)ccc23)C1` [Compound 6], the CC50 in assay [1] is less than 50 µM. In addition, the EC50 in assay [2] (setting [5]) is less than 1 µM.

For the compound `CCC(C)N1CCc2c(c3cc(OC)c(OC)cc3c3cc(OC)c(OC)cc23)C1` (centres unmarked) [Compound 26], the CC50 in assay [1] was less than 50 µM. For the same compound, in assay [2] (setting [4]), the EC50 is less than 1 µM.

Turning to `CCCN1Cc2c(c3cc(OC)c(OC)cc3c3cc(OC)c(OC)cc23)C(O)C1` (centres unmarked) [Compound 10], the CC50 in assay [1] is less than 50 µM. Moreover, the EC50 in assay [3] and in assay [2] (setting [5]) was less than 1 µM each time.

Consider `CCN1CCc2c(c3cc(OC)c(OC)cc3c3c(OC)c(OC)c(OC)cc23)C1` [Compound 1], for which the CC50 in assay [1] is less than 50 µM. Further, the EC50 in assay [3] and in assay [2] (setting [4]) was less than 1 µM in each case.

As to `COc1cc2c3c(c4cc(OC)c(OC)cc4c2cc1OC)CN(CCNC(=O)OC(C)(C)C)CC3` [Compound 35], the CC50 in assay [1] is less than 50 µM.

With `CCCN1Cc2c(c3cc(OC)c(OC)c(OC)c3c3cc(OC)c(OC)cc23)C(O)C1` (centres unmarked) [Compound 8], the CC50 in assay [1] is less than 50 µM. In addition, the EC50 in assay [2] (setting [5]) is less than 1 µM.

Consider `CCCN1CCc2c(c3cc(OC)c(OC)cc3c3cc(OC)c(OC)cc23)C1` [Compound 19], for which, in assay [1], the CC50 was less than 50 µM. In assay [2] (setting [4]), the EC50 was less than 1 µM.

With `COc1cc2c3c(c4cc(OC)c(OC)cc4c2cc1OC)CN(CCN)CC3` [Compound 36], the CC50 in assay [1] was less than 50 µM.

Regarding `CCN1Cc2c(c3ccc(OC)cc3c3cc(OC)c(OC)cc23)C(O)C1` (centres unmarked) [Compound 33], the CC50 in assay [1] was less than 50 µM. The EC50 in assay [3] was less than 1 µM.

Turning to `CCCCN1CCc2c(c3cc(OC)c(OC)cc3c3cc(OC)ccc23)C1` [Compound 7], the CC50 in assay [1] is less than 50 µM.

On to `CCCN1CCc2c(c3cc(OC)ccc3c3c(OC)c(OC)ccc23)C1` [Compound 32], for which the CC50 in assay [1] is less than 50 µM.

For the compound `COc1cc2c3c(c4cc(OC)c(OC)c(OC)c4c2cc1OC)CCN(C(C)C)C3` [Compound 4], the CC50 in assay [1] was less than 50 µM. In addition, the concentration for a half-maximal effect (EC50) in assay [2] (setting [5]) was less than 1 µM.

Consider `CCCN1CCc2c(c3cc(OC)ccc3c3cc(OC)c(OC)cc23)C1` [Compound 31], for which the CC50 in assay [1] was less than 50 µM.

As to `CCCCN1CCc2c(c3cc(OC)c(OC)cc3c3cc(OC)c(OC)cc23)C1` [Compound 20], the CC50 in assay [1] is less than 50 µM.

As to `COc1cc2c3c(c4cc(OC)c(OC)cc4c2cc1OC)CN(C(C)C)CC3` [Compound 25], in assay [1], the CC50 was less than 50 µM. The EC50 in assay [3] and in assay [2] (setting [4]) was less than 1 µM throughout.

Regarding `CCN1CCc2c(c3cc(OC)c(OC)cc3c3cc(OC)ccc23)C1` [Compound 5], the CC50 in assay [1] was less than 50 µM. Further, the EC50 in assay [2] (setting [5]) is less than 1 µM.

For `CCCN1CCc2c(c3ccc(OC)cc3c3cc(OC)c(OC)cc23)C1` [Compound 29], the CC50 in assay [1] is less than 50 µM.

Turning to `CCN1Cc2c(c3cc(OC)c(OC)cc3c3cc(OC)c(OC)cc23)C(O)C1` (centres unmarked) [Compound 9], the CC50 in assay [1] was less than 50 µM. Moreover, the half-maximal effective concentration (EC50) in assay [3] and in assay [2] (setting [5]) was less than 1 µM each time.

For the compound `COc1cc2c3c(c4cc(OC)c(OC)cc4c2cc1OC)CN(C1C=CCCC1)CC3` (centres unmarked) [Compound 34], the CC50 in assay [1] was less than 50 µM.

Take `COc1cc2c3c(c4cc(OC)c(OC)cc4c2cc1OC)CN(CCC1OCCO1)CC3` [Compound 24]: the CC50 in assay [1] was less than 50 µM.
